Reference: patent US20260069552A1, “Methods of Providing a Cooling Sensation to Skin Afflicted with Eczema” (Kenvue Brands LLC, priority 2022, published 2026)

Test system: Staphylococcus epidermidis (ATCC 12228)
Test: In vitro bacteria competition assay (co-culture)
Format: cell-based
Conditions: 1:1 co-culture with S. aureus in Nutrient Broth, 24 hours aerobic, CFU/mL; versus untreated; w/v % as in label; n=3
Description: In vitro bacteria competition assay evaluated Staphylococcus epidermidis (ATCC 12228, skin health associated strain) and Staphylococcus aureus (ATCC 6538, human lesion isolate) co-culture in the presence of test materials. Percentages are w/v % in liquid medium (Nutrient Broth, Culture Media and Supplies Inc.) To mimic the microenvironment of the skin surface, an aerobic, co-culture system of S. epidermidis and S. aureus was established. 50 μL S. epidermidis and 50 μL S. aureus (a 1:1 ratio) were inoculated (50 μL at approximately 5.0×10^6 CFU/mL each) in Nutrient Broth and in the presence of the test materials as specified in Table 14 below. [table] Test groups were incubated aerobically for 24 hours (n=3 per test group) After 24 hours, each test group was plated onto agar and incubated aerobically for 24 hours […]. After incubation, colonies were counted, and CFU/mL calculated. S. epidermidis and S. aureus colonies were differentiated on agar (Tryptic Soy Agar+5% sheep's blood, BD Diagnostics) based on representative morphology.

## CC(O)C(=O)O (stereo not shown) [Lactic Acid (1.1%), Lactic acid]
  S. epidermidis growth in bacteria competition assay: inhibited
